Test results taken from US8604061B2, “2-aminooxazolines as TAAR1 ligands” (Hoffmann-La Roche Inc., priority 2007, dated 2013).
Where two headings read alike, the source gives them in different places.

Target: TAAR1 (Mus musculus, UniProt Q923Y8)
Assay: TAAR1 radioligand binding, membranes of stably transfected HEK293 cells (mouse)
Protocol: For the construction of expression plasmids the coding sequences of human, rat and mouse TAAR 1 were amplified from genomic DNA essentially as described by Lindemann et al.. The Expand High Fidelity PCR System (Roche Diagnostics) was used with 1.5 mM Mg^2+ and purified PCR products were cloned into pCR2.1-TOPO cloning vector (Invitrogen) following the instructions of the manufacturer. PCR products were subcloned into the pIRESneo2 vector (BD Clontech, Palo Alto, Calif.), and expression vectors were sequence verified before introduction in cell lines.
HEK293 cells (ATCC #CRL-1573) were cultured essentially as described Lindemann et al. (2005). For the generation of stably transfected cell lines HEK293 cells were transfected with the pIRESneo2 expression plasmids containing the TAAR coding sequences (described above) with Lipofectamine 2000 (Invitrogen) according to the instructions of the manufacturer, and 24 hrs post transfection the culture medium was supplemented with 1 mg/ml G418 (Sigma, Buchs, Switzerland). After a culture period of about 10 d clones were isolated, expanded and tested for responsiveness to trace amines (all compounds purchased from Sigma) with the cAMP Biotrak Enzyme immunoassay (EIA) System (Amersham) following the non-acetylation EIA procedure provided by the manufacturer.
Cells at confluence were rinsed with ice-cold phosphate buffered saline without Ca^2+ and Mg^2+ containing 10 mM EDTA and pelleted by centrifugation at 1000 rpm for 5 min at 4° C. The pellet was then washed twice with ice-cold phosphate buffered saline and cell pellet was frozen immediately by immersion in liquid nitrogen and stored until use at −80° C. Cell pellet was then suspended in 20 ml HEPES-NaOH (20 mM), pH 7.4 containing 10 mM EDTA, and homogenized with a Polytron (PT 3000, Kinematica) at 10,000 rpm for 10 s. The homogenate was centrifuged at 48,000×g for 30 min at 4° C. and the pellet resuspended in 20 ml HEPES-NaOH (20 mM), pH 7.4 containing 0.1 mM EDTA (buffer A), and homogenized with a Polytron at 10,000 rpm for 10 s. The homogenate was then centrifuged at 48,000×g for 30 min at 4° C. and the pellet resuspended in 20 ml buffer A, and homogenized with a Polytron at 10,000 rpm for 10 s. Protein concentration was determined by the method of Pierce (Rockford, Ill.). The homogenate was then centrifuged at 48,000×g for 10 min at 4° C., resuspended in HEPES-NaOH (20 mM), pH 7.0 including MgCl2 (10 mM) and […] homogenized with a Polytron at 10,000 rpm for 10 s.
Binding assay was performed at 4° C. in a final volume of 1 ml, and with an incubation time of 30 min. […] Non-specific binding was defined as the amount of [^3H]-rac-2-(1,2,3,4-tetrahydro-1-naphthyl)-2-imidazoline bound in the presence of the appropriate unlabelled ligand (10 μM). Competing ligands were tested in a wide range of concentrations (10 pM-30 μM). […] Each experiment was performed in duplicate. All incubations were terminated by rapid filtration through UniFilter-96 plates (Packard Instrument Company) and glass filter GF/C, pre-soaked for at least 2 h in polyethylenimine 0.3%, and using a Filtermate 96 Cell Harvester (Packard Instrument Company). The tubes and filters were then washed 3 times with 1 ml aliquots of cold buffer B. Filters were not dried and soaked in Ultima gold (45 μl/well, Packard Instrument Company) and bound radioactivity was counted by a TopCount Microplate Scintillation Counter (Packard Instrument Company).

[1] = mouse/rat, cell not marked 'rat', radioligand [3H]-rac-2-(1,2,3,4-tetrahydro-1-naphthyl)-2-imidazoline, 4° C., read-out: Ki (μM) mouse/rat

Row | SMILES | Ki [1] [µM] | Ki [µM]
1 | C[C@]1(c2cccc(C(F)(F)F)c2)COC(N)=N1 [Example 219, (S)-4-Methyl-4-(3-trifluoromethyl-phenyl)-4,5-dihydro-oxazol-2-ylamine] | 0.0009 | –
2 | NC1=N[C@@H](c2ccc(Cl)c(F)c2)CO1 [Example 174, (S)-4-(4-Chloro-3-fluoro-phenyl)-4,5-dihydro-oxazol-2-ylamine] | – | 0.0006
3 | NC1=N[C@@H](c2ccc(F)c(F)c2F)CO1 [Example 301, (+)-(S)-4-(2,3,4-Trifluoro-phenyl)-4,5-dihydro-oxazol-2-ylamine] | 0.0023 | –
4 | NC1=N[C@@H](c2cc(F)cc(F)c2)CO1 [Example 176, (S)-4-(3,5-Difluoro-phenyl)-4,5-dihydro-oxazol-2-ylamine] | 0.002 | –
5 | NC1=N[C@@H](CCc2cccc(C(F)(F)F)c2)CO1 [Example 120, (S)-4-[2-(3-Trifluoromethyl-phenyl)-ethyl]-4,5-dihydro-oxazol-2-ylamine] | 0.0014 | –
6 | CCC(C[C@H]1COC(N)=N1)c1ccc(Cl)cc1 (stereo partly drawn) [Example 162, (S)-4-[2-(4-Chloro-phenyl)-butyl]-4,5-dihydro-oxazol-2-ylamine] | 0.0025 | –
7 | Cc1cc(F)ccc1[C@H]1COC(N)=N1 [Example 348, (+)-(S)-4-(4-Fluoro-2-methyl-phenyl)-4,5-dihydro-oxazol-2-ylamine] | 0.0036 | –
8 | NC1=N[C@@H](CCc2ccc(F)cc2Cl)CO1 [Example 139, (S)-4-[2-(2-Chloro-4-fluoro-phenyl)-ethyl]-4,5-dihydro-oxazol-2-ylamine] | – | 0.0019
9 | NC1=N[C@@H](c2ccc(F)c(F)c2)CO1 [Example 166, (S)-4-(3,4-Difluoro-phenyl)-4,5-dihydro-oxazol-2-ylamine] | 0.0047 | –
10 | NC1=N[C@H](CCc2ccc(Cl)c(Cl)c2)CO1 [Example 124, (R)-4-[2-(3,4-Dichloro-phenyl)-ethyl]-4,5-dihydro-oxazol-2-ylamine] | 0.0044 | –
11 | NC1=NC(c2ccc(Br)cc2Cl)CO1 (racemic) [Example 291, (RS)-4-(4-Bromo-2-chloro-phenyl)-4,5-dihydro-oxazol-2-ylamine] | – | 0.0008
12 | CCC(C[C@H]1COC(N)=N1)c1ccc(C(F)(F)F)cc1 (stereo partly drawn) [Example 184, (S)-4-[2-(4-Trifluoromethyl-phenyl)-butyl]-4,5-dihydro-oxazol-2-ylamine] | 0.0063 | –
13 | CC(C[C@H]1COC(N)=N1)c1ccc(Cl)c(Cl)c1 (stereo partly drawn) [Example 221, (S)-4-[2-(3,4-Dichloro-phenyl)-propyl]-4,5-dihydro-oxazol-2-ylamine] | 0.0022 | –
14 | CC1(c2cc(F)c(Cl)cc2F)COC(N)=N1 (racemic) [Example 271, (RS)-4-Methyl-4-(4-chloro-2,5-difluoro-phenyl)-4,5-dihydro-oxazol-2-ylamine] | – | 0.0013
15 | C[C@@]1(c2ccccc2F)COC(N)=N1 [Example 196, (R)-4-(2-Fluoro-phenyl)-4-methyl-4,5-dihydro-oxazol-2-ylamine] | 0.0066 | –
16 | NC1=N[C@@H](c2cc(F)c(F)c(F)c2)CO1 [Example 170, (S)-4-(3,4,5-Trifluoro-phenyl)-4,5-dihydro-oxazol-2-ylamine] | 0.0011 | –
17 | NC1=NC(c2ccc(-c3ccc(Cl)cc3)cc2)CO1 (racemic) [Example 31, (RS)-4-(4′-Chloro-biphenyl-4-yl)-4,5-dihydro-oxazol-2-ylamine] | – | 0.0022
18 | NC1=N[C@@H](CCc2ccc(Cl)c(C(F)(F)F)c2)CO1 [Example 144, (S)-4-[2-(4-Chloro-3-trifluoromethyl-phenyl)-ethyl]-4,5-dihydro-oxazol-2-ylamine] | 0.0012 | –
19 | NC1=N[C@@H](CCc2ccc(F)c(OC(F)(F)F)c2)CO1 [Example 146, (S)-4-[2-(4-Fluoro-3-trifluoromethoxy-phenyl)-ethyl]-4,5-dihydro-oxazol-2-ylamine] | 0.0041 | –
20 | C[C@]1(CCc2ccc(Cl)cc2Cl)COC(N)=N1 [Example 304, (S)-4-[2-(2,4-Dichloro-phenyl)-ethyl]-4-methyl-4,5-dihydro-oxazol-2-ylamine] | 0.0033 | –

Row | SMILES | Ki [1] [µM] | Ki [µM]
21 | COc1ccc([C@H]2COC(N)=N2)c(C(F)(F)F)c1 [Example 240, (+)-(S)-4-(4-Methoxy-2-trifluoromethyl-phenyl)-4,5-dihydro-oxazol-2-ylamine] | 0.0032 | –
22 | C[C@]1(c2ccccc2Cl)COC(N)=N1 [Example 180, (S)-4-(2-Chloro-phenyl)-4-methyl-4,5-dihydro-oxazol-2-ylamine] | 0.0088 | –
23 | CCc1cc(Cl)ccc1[C@H]1COC(N)=N1 [Example 364, (+)-(S)-4-(4-Chloro-2-ethyl-phenyl)-4,5-dihydro-oxazol-2-ylamine] | 0.002 | –
24 | NC1=N[C@@H](c2ccccc2C(F)(F)F)CO1 [Example 122, (S)-4-(2-Trifluoromethyl-phenyl)-4,5-dihydro-oxazol-2-ylamine] | 0.0034 | –
25 | Cc1ccc(CC[C@H]2COC(N)=N2)cc1 [Example 116, (S)-4-(2-p-Tolyl-ethyl)-4,5-dihydro-oxazol-2-ylamine] | 0.0012 | –
26 | C[C@]1(c2cc(F)cc(Cl)c2)COC(N)=N1 [Example 266, (S)-4-(3-Chloro-5-fluoro-phenyl)-4-methyl-4,5-dihydro-oxazol-2-ylamine] | 0.0016 | –
27 | NC1=NC(c2cc(Cl)ccc2F)CO1 (racemic) [Example 19, (RS)-4-(5-Chloro-2-fluoro-phenyl)-4,5-dihydro-oxazol-2-ylamine] | – | 0.0018
28 | NC1=N[C@@H](CCc2ccc(C(F)(F)F)cc2)CO1 [Example 119, (S)-4-[2-(4-Trifluoromethyl-phenyl)-ethyl]-4,5-dihydro-oxazol-2-ylamine] | 0.0026 | –
29 | NC1=N[C@@H](COc2ccccc2F)CO1 [Example 354, (S)-4-(2-Fluoro-phenoxymethyl)-4,5-dihydro-oxazol-2-ylamine] | 0.0003 | –
30 | NC1=N[C@@H](CCc2cc(F)cc(F)c2)CO1 [Example 113, (S)-4-[2-(3,5-Difluoro-phenyl)-ethyl]-4,5-dihydro-oxazol-2-ylamine] | 0.0016 | –
31 | Cc1ccccc1CC[C@H]1COC(N)=N1 [Example 114, (S)-4-(2-o-Tolyl-ethyl)-4,5-dihydro-oxazol-2-ylamine] | 0.0021 | –
32 | NC1=N[C@@H](CCc2c(F)cccc2Cl)CO1 [Example 303, (S)-4-[2-(2-Chloro-6-fluoro-phenyl)-ethyl]-4,5-dihydro-oxazol-2-ylamine] | 0.0011 | –
33 | NC1=N[C@@H](c2cc(Cl)ccc2C(F)(F)F)CO1 [Example 341, (+)-(S)-4-(5-Chloro-2-trifluoromethyl-phenyl)-4,5-dihydro-oxazol-2-ylamine] | 0.0046 | –
34 | CCC(C[C@H]1COC(N)=N1)c1cccc(F)c1 (stereo partly drawn) [Example 340, (S)-4-[2-(3-Fluoro-phenyl)-butyl]-4,5-dihydro-oxazol-2-ylamine] | 0.002 | –
35 | C[C@]1(c2cc(F)c(Cl)cc2F)COC(N)=N1 [Example 289, (S)-4-(4-Chloro-2,5-difluoro-phenyl)-4-methyl-4,5-dihydro-oxazol-2-ylamine] | 0.0017 | –
36 | NC1=NC(CCC2CCCCC2)CO1 (stereo in doubt) [Example 332, (S)-4-(2-Cyclohexyl-ethyl)-4,5-dihydro-oxazol-2-ylamine] | 0.0061 | –
37 | NC1=N[C@@H](CCc2cc(Cl)ccc2Cl)CO1 [Example 333, (S)-4-[2-(2,5-Dichloro-phenyl)-ethyl]-4,5-dihydro-oxazol-2-ylamine] | 0.0021 | –
38 | CCC(C[C@H]1COC(N)=N1)c1cccc(C(F)(F)F)c1 (stereo partly drawn) [Example 194, (S)-4-[2-(3-Trifluoromethyl-phenyl)-butyl]-4,5-dihydro-oxazol-2-ylamine] | 0.0073 | –
39 | NC1=NC(c2ccc3ccccc3c2)CO1 (racemic) [Example 33, (RS)-4-Naphthalen-2-yl-4,5-dihydro-oxazol-2-ylamine] | – | 0.0007
40 | NC1=NC(c2cc(F)ccc2F)CO1 (racemic) [Example 16, (RS)-4-(2,5-Difluoro-phenyl)-4,5-dihydro-oxazol-2-ylamine] | – | 0.0048
